Columns and labels:
[1] = molecular target: T1, UbCH7 (E2), human recombinant (Homo sapiens, UniProt P68036); experiment: E2-Biotin Tag Conjugation Assay; format: biochemical
T1 construct: purchased Boston Biochem E2-640
Description: The UbCH7 enzyme was diluted with a buffer of 50 mM HEPES, 50 mM NaCl, 10% glycerol, pH 7.6 to derive the 10 μM stocks. […] Reactions were terminated by the additions of 2 μL 6× non-reducing bromophenol-absent SDS-PAGE sample buffer and the mixtures were boiled at 85° C. for 2 min. The biotin-labeled […] were resolved from the free biotin tags with 8-16% Tris-Glycine SDS-PAGE gel, transferred onto the PVDF membrane using a semi-dry protein transfer apparatus, and detected using the VECTASTAIN ABC-AmP detection system following the manufacturer's protocol.

[2] = test system: Fraction II, rabbit reticulocyte; experiment: Fraction II - Biotin Tag Conjugation Assay; format: biochemical; conditions: ubiquitin-free reticulocyte fraction II containing E1, E2, E3 activities
Description: The fraction II from rabbit reticulocyte lysates was cleaned with ImmunoPure immobilized streptavidin beads from Pierce (Rockford, Ill.) to remove non-specific streptavidin-binding proteins following the manufacturer's instruction. An aliquot (11 μg) was then incubated with various amounts of biotin tag in 10 μL reaction buffer (100 mM Tris, 3 mM DTT, 5 mM MgCl2, 2 mM ATP, pH 7.6) at 37° C. for 5 min. The reactions were terminated by adding 2 μL 6×SDS-PAGE sample buffer and the mixtures were boiled at 85° C. for 2 min. The biotin-labeled substrates were resolved from the free biotin tags with 8-16% Tris-Glycine SDS-PAGE gel, transferred onto the PVDF membrane using a semi-dry protein transfer apparatus, and detected using the VECTASTAIN ABC-AmP detection system following the manufacturer's protocol.

[3] = test system: semi-purified tubulin/parkin complex; experiment: Biotin Tag Conjugation of Tubulin/Parkin Complex; format: biochemical, rat; conditions: for biotin labeling efficiency of parkin-mediated tubulin modification versus recognition sequence: FIG. 2b, tags 1-6 compared; for labeling of tubulin in tubulin/parkin complex (FIG. 8): FIG. 8 lanes 3 and 6
Description: A total of 4 μg semi-purified tubulin/parkin complex and varying concentrations of the biotin tag was incubated at 37° C. for 15 min in 10 μL buffers of 50 mM Tris, 50 mM NaCl, 10 mM MgCl2, 10 μM ATP, pH 7.6. For DTT reduction, 1 μL of 6M DTT was added and the solution was incubated at r.t. for additional 30 min. Reactions were terminated by the additions of 2 μL 6×SDS-PAGE sample buffer containing 100 mM DTT and the mixtures were boiled at 95° C. for 5 min. The biotin-labeled substrates were resolved from the free biotin tags with 8-16% Tris-Glycine SDS-PAGE gel, transferred onto the PVDF membrane using a semi-dry protein transfer apparatus, and detected using the VECTASTAIN ABC-AmP detection system following the manufacturer's protocol. The intensities of protein bands are quantified with the ImageJ program (http://rsb.info.nih.gov/ij/) following the program manual.

[4] = molecular target: T2, ubiquitin activating enzyme (E1), rabbit (Oryctolagus cuniculus, UniProt Q29504); experiment: E1-Biotin Tag Conjugation Assay; format: biochemical
T2 construct: purchased Boston Biochem E-302
T2 sequence (Q29504 1-1058): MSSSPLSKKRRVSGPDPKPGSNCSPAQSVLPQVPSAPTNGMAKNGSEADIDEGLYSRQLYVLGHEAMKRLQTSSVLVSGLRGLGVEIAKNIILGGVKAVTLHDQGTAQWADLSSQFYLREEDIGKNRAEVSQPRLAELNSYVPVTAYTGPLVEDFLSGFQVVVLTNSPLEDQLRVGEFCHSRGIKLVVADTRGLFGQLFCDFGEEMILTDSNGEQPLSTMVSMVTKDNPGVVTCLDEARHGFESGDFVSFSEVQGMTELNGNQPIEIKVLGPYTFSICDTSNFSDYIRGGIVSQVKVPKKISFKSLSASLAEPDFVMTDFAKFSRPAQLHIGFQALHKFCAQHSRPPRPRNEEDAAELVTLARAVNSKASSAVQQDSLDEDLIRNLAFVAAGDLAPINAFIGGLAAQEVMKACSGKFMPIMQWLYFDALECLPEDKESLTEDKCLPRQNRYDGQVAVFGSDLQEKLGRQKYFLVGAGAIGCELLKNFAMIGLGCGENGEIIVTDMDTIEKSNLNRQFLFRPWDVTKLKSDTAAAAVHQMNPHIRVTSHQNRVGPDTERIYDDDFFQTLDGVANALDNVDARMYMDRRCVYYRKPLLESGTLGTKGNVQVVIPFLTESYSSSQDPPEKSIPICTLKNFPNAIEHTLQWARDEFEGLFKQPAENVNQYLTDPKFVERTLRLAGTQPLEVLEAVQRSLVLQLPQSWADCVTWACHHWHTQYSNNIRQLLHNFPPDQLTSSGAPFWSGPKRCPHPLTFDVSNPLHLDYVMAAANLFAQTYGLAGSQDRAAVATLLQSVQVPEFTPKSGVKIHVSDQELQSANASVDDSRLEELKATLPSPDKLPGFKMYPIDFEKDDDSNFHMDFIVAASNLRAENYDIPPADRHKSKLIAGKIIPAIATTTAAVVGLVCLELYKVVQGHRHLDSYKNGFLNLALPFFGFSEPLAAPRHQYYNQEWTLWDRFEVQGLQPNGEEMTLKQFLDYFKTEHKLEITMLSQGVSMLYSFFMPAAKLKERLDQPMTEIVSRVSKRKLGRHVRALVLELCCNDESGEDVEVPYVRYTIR
Description: The E1 enzyme was diluted with 50 mM HEPES buffer, pH 7.6 to derive the 0.45 μM stocks. A total of 90 nM rabbit E1 and varying concentrations of tag 1 was incubated at 37° C. for 5 min in 10 μL buffers of 50 mM Tris, 50 mM NaCl, 10 mM MgCl2, 10 μM ATP, pH 7.6. The reactions were terminated by the additions of 2 μL 6× bromophenol-absent SDS sample buffer and the mixtures were boiled at 85° C. for 2 min. The biotin-labeled E1 thioesters were resolved from the free biotin tags with 8-16% Tris-Glycine SDS-PAGE gel, transferred onto the PVDF membrane using a semi-dry protein transfer apparatus, and detected using the VECTASTAIN ABC-AmP detection system following the manufacturer's protocol. Briefly, the membrane was washed three times for 4 min each in 10 mL 1× casein solution at r.t. with gentle shaking, and then incubated in the 10 mL 1× casein blotting solution containing 20 μL each of reagent A and B from the kit for 10 min. The membrane was washed three times for 4 min each in 10 mL 1× casein solution, followed by equilibration in 10 mL 0.1M Tris buffer, pH 9.5, for 5 min. The excess buffer was removed and the blot surface was incubated in 3 mL DuoLux chemiluminescent substrate for 5 min under subdued light. Briefly rinse the blot in 0.1 M Tris buffer, pH 9.5, and remove the excess buffer by touching the edge of the blot to absorbent paper. The image was obtained by exposing the blot to the Kodak BioMax Light Film.

T1 sequence (P68036 whole entry): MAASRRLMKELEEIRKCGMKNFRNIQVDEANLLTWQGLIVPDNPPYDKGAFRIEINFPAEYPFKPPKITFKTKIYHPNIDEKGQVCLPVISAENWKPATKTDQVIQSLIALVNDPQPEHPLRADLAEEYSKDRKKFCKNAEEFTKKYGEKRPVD

Compound | biotin labeling of E2 in the absence of E1 ([1]; incubation with E2 alone, no E1) | extent of tag transfer from E1-1 to E2 ([1]; tag concentration reduced to 50 μM, E1 and E2 present) | covalent modification of proteins in fraction II extract [2] | concentration range of concentration-dependent biotin labeling of 55 KDa protein (tubulin) ([3]; 10 μM ATP, FIG. 2a) [µM] | biotin labeling efficiency of parkin-mediated tubulin modification versus recognition sequence [3] | labeling of tubulin in tubulin/parkin complex (FIG. 8) [3] | formation of E1-biotin tag adduct (E1-1 thioester) ([4]; incubated with E1 for 5 min, non-reducing ATP-supplemented buffer, streptavidin blot) | E1 biotin-adduct formation on withdrawal of ATP ([4]; no ATP in reaction buffer, tag 150 μM (FIG. 6)) | labeling of proteins in tubulin/parkin complex ([3]; 450 μM) | activity in E1 adduct formation ([4]; concentrations as high as 450 μM)
tag 1: biotin linked through aminohexanoic acid linker to recognition sequence LRLRGG (SEQ ID NO: 1) (HELM PEPTIDE1{[O=C1N[C@H]2[C@H](CS[C@H]2CCCCC(=O)[*:2])N1].[O=C(CCCCCN[*:1])[*:2]].L.R.L.R.G.G}$$$$V2.0; SMILES CC(C)C[C@H](NC(=O)CCCCCNC(=O)CCCC[C@@H]1SC[C@@H]2NC(=O)N[C@@H]21)C(=O)N[C@@H](CCCNC(=N)N)C(=O)N[C@@H](CC(C)C)C(=O)N[C@@H](CCCNC(=N)N)C(=O)NCC(=O)NCC(=O)O) | did not give rise to the biotin-labeled E2 | undetectable level | concentration-dependent covalent modification of a large number of proteins | 17 to 450 | highest labeling efficacy | Robust labeling | biotin-containing protein bands with the size matching that of E1 were detected | aborted the biotin-adduct formation |  | 
O=C(O)CCCCCNC(=O)CCCC[C@@H]1SC[C@@H]2NC(=O)N[C@@H]21 [long-chain biotin, biotinylaminohexanonic acid, reference compound] |  |  |  |  |  | could not label the tubulins |  |  | no labeling of any protein | 
tag 2: biotin linked through aminohexanoic acid linker to sequence LALRGG (SEQ ID NO: 2) (HELM PEPTIDE1{[O=C1N[C@H]2[C@H](CS[C@H]2CCCCC(=O)[*:2])N1].[O=C(CCCCCN[*:1])[*:2]].L.A.L.R.G.G}$$$$V2.0; SMILES CC(C)C[C@H](NC(=O)CCCCCNC(=O)CCCC[C@@H]1SC[C@@H]2NC(=O)N[C@@H]21)C(=O)N[C@@H](C)C(=O)N[C@@H](CC(C)C)C(=O)N[C@@H](CCCNC(=N)N)C(=O)NCC(=O)NCC(=O)O) |  |  |  |  | decreased biotin labeling |  |  |  |  | almost no activity
